Measured values published in patent publication US20220192985A1, “METHOD OF PRODUCTION OF A COMPOSITE OF YEAST-DERIVED BETA GLUCAN PARTICLE WITH INCORPORATED POORLY-WATER-SOLUBLE LOW-MOLECULAR-WEIGHT COMPOUND, PHARMACEUTICAL PREPARATION AND USE THEREOF” (VYSOKA SKOLA CHEMICKO-TECHNOLOGICKA V PRAZE, priority 2019, published 2022).

Assays:
Format in all cases: physicochemical
[1] = Moisture (water content), moisture analysis balance; conditions: first measurement, 100° C. infrared drying
Experimental: (§1) The moisture (water content) of the samples was firstly measure using a moisture analysis balance (simple test, 100° C., 5 mg initial mass, infrared drying). […] The samples were then dried for 24 hours in the oven with very-slowly-moving fan at 30° C. Finally, a shear test (FIG. 15) was performed on the samples a Powder Rheometer FT4 (pre-sheared at 3 kPa consolidation and initial mass of 0.6-0.7 g).

[2] = Powder rheology shear test (FT4), Example 8; conditions: pre-sheared at 3 kPa; ATO/GP mass ratio 25%
Experimental: as §1

[3] = Powder rheology shear test (FT4), Comparative Example 9; conditions: pre-sheared at 3 kPa, mass ratio 10%
Experimental: Shear tests were performed on the samples a Powder Rheometer FT4 (pre-sheared at 3 kPa consolidation and initial mass of 0.6-0.7 g). The tests were carried out per duplicate under laboratory conditions (21.2±0.7° C. and 35.1±2.0% relative humidity).

[4] = Dissolution test of (IBU+ASA)/GP, crude IBU and crude ASA in 10 mM HCl (pH 2.0); conditions: 10 mM HCl pH 2.0, room temperature; compared with encapsulated drug
Experimental: Dissolution tests (FIG. 11) were performed for crude micronized ibuprofen, crude acetylsalicylic acid and for the produced (IBU+ASA)/GP composite particles, in powder form and using 10 mM HCl (pH 2.0) as dissolution medium. For that, 20.0 mg of crude drug (IBU or ASA) or 100.0 mg of (IBU+ASA)/GP composite, were added to 200 mL of continuously stirred dissolution medium (for a maximum concentration of 0.1 mg of drug per ml of medium). The mixtures were continuously stirred at 250 rpm and room temperature in a 250-mL beaker. At pre-defined time-points (ranging from 0 to 60 min), 500 μL of sample were collected, centrifuged and filtered (200-nm pore size filtration membrane), and the concentration was evaluated by high-performance liquid chromatography (HPLC) with UV detection (Agilent), coupled with C18 column (100 mm×4.6 mm, 5 μm) and mobile phase consisting of 0.01 M ammonium phosphate buffer (pH 2.0) and acetonitrile, in gradient according to the Table 2: […]

| Compound | moisture (water content) [1] [% wt.] | AIF (Angle of Internal Friction) [2] [°] | Cohesion [2] [kPa] | Cohesion ([3]; 21.2±0.7° C., 35.1±2.0% relative humidity) [kPa] | AIF (Angle of Internal Friction) [3] [°] | Category (flowability) [3] | FF (Flow Function) [3] | dissolution rate [4] |
| --- | --- | --- | --- | --- | --- | --- | --- | --- |
| CC(C)c1c(C(=O)Nc2ccccc2)c(-c2ccccc2)c(-c2ccc(F)cc2)n1CC[C@@H](O)C[C@@H](O)CC(=O)O [Crude ATO, atorvastatin] | 2.5 | 45.3 | 0.879 | 0.81 ± 0.21 | 51.24 ± 0.82 | Cohesive | 2.43 ± 0.48 | – |
| CC(=O)Oc1ccccc1C(=O)O [crude ASA, acetylsalicylic acid] | – | – | – | – | – | – | – | slower dissolution rates |
| CC(C)Cc1ccc(C(C)C(=O)O)cc1 (stereo not drawn) [crude IBU, ibuprofen] | – | – | – | – | – | – | – | slower dissolution rates |
